Test results from patent US12054497B2, “Substituted heterocyclic fused cyclic compound, preparation method therefor and pharmaceutical use thereof” (GENFLEET THERAPEUTICS (SHANGHAI) INC., priority 2019, dated 2024).

Experiment: Pharmacokinetic evaluation on mice, intravenous administration (Test Example 6)
Format: in vivo
Details: mouse, plasma, male CD-1 mice, IV 2 mg/kg; for clearance: read-out: Cl (clearance rate) (converted); for half-life: read-out: T1/2 (half-life) (converted); for Vd: read-out: Vd (volume of distribution)
Protocol: Experimental objective: male CD-1 mice were chosen as tested animals, and the LC-MS-MS method was employed to measure the concentrations of a tested compound in blood plasma of a mouse intravenously and intragastrically administrated with the tested compound at different times. The pharmacokinetic behaviors of tested compounds in mice were studied, and the pharmacokinetic characteristics thereof were evaluated.
Experimental scheme: experimental animals: 18 healthy adult male CD-1 mice (6 to 8 weeks old, and body weight about 30 g) were divided into 6 groups according to the principle of similar body weights: 3 mice in each of IV groups (3 groups), and 3 mice in each of PO groups (3 groups). The animals were purchased from Shanghai Jihui Laboratory Animal Care Co., Ltd.
Formulation: IV group: taking 10 mL of sample solution for example, 4 mg of sample was weighed, orderly added with 0.5 mL of DMSO and […], then added with […] of HP-p-CD, finally added with water to a constant volume of 10 mL, and stirred and subjected to ultrasonic irradiation, thereby obtaining a 0.4 mg/mL clear solution. PO group: an appropriate amount of sample was weighed, orderly added with appropriate amounts of Labrasol and water in a volume ratio of 10:40, and stirred and subjected to ultrasonic irradiation, thereby obtaining a 1.5 mg/mL uniform solution.
Administration: after being deprived of food for one night, the IV groups were intravenously administrated with the formulated solutions, respectively, with an injection volume of 5 mL/kg and a dosage of 2 mg/kg. The PO groups were intragastrically administrated with the formulated solutions, respectively, with an injection volume of […] and a dosage of 15 mg/kg.
Experimental operations: after the intravenous injection groups and the intragastric administration groups of the male CD-1 mice were administrated with the tested compounds, 110 ul of blood was sampled at the following time points: 0.0833, 0.25, 0.5, 1, 2, 4, 6, 8, and 24 hours. The sampled blood was placed into an anticoagulant tube which was added with K2EDTA in advance and preserved in dry ice. The tube was centrifuged for 15 minutes to separate blood plasma, and the separated blood plasma was preserved at −70° C. The animals were allowed to be fed after 4 hours of administration. The LC-MS-MS method was employed to measure the concentration of the tested compounds in the blood plasma after the intravenous and intragastric administration to the mice. The linear range of the method was 1-3000 ng/ml. The blood plasma samples were analyzed after protein precipitation with ACN.

SMILES | clearance [mL/min/kg] | half-life [h] | Vd [L/kg]
C=CC(=O)N1CCN2c3c(c(=O)n(-c4c(C)ccnc4C(C)C)c4nc(-c5c(O)cccc5F)c(F)cc34)N(C)C(=O)[C@H]2C1 (single isomer, unassigned) [Compound Z9-2] | 2.33 | 1.74 | 0.326
C=CC(=O)N1CCN2c3c(c(=O)n(-c4c(C)ccnc4C(C)C)c4nc(-c5c(O)cccc5F)c(Cl)cc34)N(C)C(=O)[C@H]2C1 (single isomer, unassigned) [Compound Z25-2] | 8.32 | 1 | 0.661
C=CC(=O)N1C[C@@H]2C(=O)N(C)c3c(c4cc(F)c(-c5c(O)cccc5F)nc4n(-c4c(C)ccnc4C(C)C)c3=O)N2C[C@H]1C (single isomer, unassigned) [Compound Z10-2] | 13.5 | 0.941 | 1.06
C=CC(=O)N1C[C@@H]2C(=O)N(C)c3c(c4cc(Cl)c(-c5c(O)cccc5F)nc4n(-c4c(C)ccnc4C(C)C)c3=O)N2C[C@H]1C (single isomer, unassigned) [Compound Z27-2] | 9.83 | 1.08 | 0.777
C=CC(=O)N1CCN2c3c(c(=O)n(-c4c(C(C)C)ncnc4C(C)C)c4nc(-c5c(O)cccc5F)c(Cl)cc34)N(C)C(=O)[C@H]2C1 [Compound Z48] | 25.5 | 1.02 | 1.66
